The results in this text go back to patent US8022050B2, “Compound for inhibiting TRPA1 function and use thereof” (Korea University Industry and Academic Collaboration …, priority 2008, dated 2011).

The subject of test [1] is pain induced by cinnamaldehyde. Briefly: Acute hind paw licking/flicking behaviors in mice (cinnamaldehyde-induced pain, normal or inflammatory condition). The test is classed as in vivo. The conditions noted are these: hind paw injection, 10 minutes, substance injected alone, FIG. 3a.
Experimental: The time spent for the hind paw licking/flicking behaviors in mice were measured according to the method of Bandell M, et al. (Neuron 41:849-857, 2004) and Moqrich A, et al. (Science 307:1468-1472, 2005), for 10 minutes. • Control: non-treatment; • Experimental group 1. […] 300 μM of CA; • Experimental group 3.
Test [2] relates to inflammatory sensitization induced by carrageenan. Briefly: Sensitivity to thermal stimulation (avoidance time) in carrageenan-injected mice. The test is classed as in vivo. The conditions noted are these: 10 μl of 0.1% carrageenan 3 h before, 10 μl of 1 mM substance into hind paw, FIG. 4.
Experimental: Equal amount of AP18 (Biomol, USA), the TRPA1 specific inhibitor, was injected into the positive control. Avoidance time was measured by using thermal stimulator (Ugo basile plant test, Italy). Each group was composed of 5 mice and beam injection was performed four times, which were averaged.

Molecules are shown by their SMILES.

As to `O=CC=Cc1ccccc1` [cinnamaldehyde], the “Time spent for hind paw licking/flicking behaviors, substance alone” value in test [1] is “increased the time spent for the behaviors”.
With `CC(=C\c1ccc(Cl)cc1)/C(C)=N/O` [AP18], the “Sensitivity against thermal stimulation (avoidance time)” value in test [2] is listed as “almost no effects”.
